Assay [1] has as its system collagen-induced arthritis. The assay can be described thus: Type II collagen-induced arthritis in mice, clinical score. Format: in vivo. As to conditions: male DBA/1 mice, 20 mg/kg per day subcutaneously starting at 2nd immunization, versus control vehicle.
In a further assay the target is T1, CCR-3 (Homo sapiens, UniProt P51677).
T1 sequence (P51677 1-355): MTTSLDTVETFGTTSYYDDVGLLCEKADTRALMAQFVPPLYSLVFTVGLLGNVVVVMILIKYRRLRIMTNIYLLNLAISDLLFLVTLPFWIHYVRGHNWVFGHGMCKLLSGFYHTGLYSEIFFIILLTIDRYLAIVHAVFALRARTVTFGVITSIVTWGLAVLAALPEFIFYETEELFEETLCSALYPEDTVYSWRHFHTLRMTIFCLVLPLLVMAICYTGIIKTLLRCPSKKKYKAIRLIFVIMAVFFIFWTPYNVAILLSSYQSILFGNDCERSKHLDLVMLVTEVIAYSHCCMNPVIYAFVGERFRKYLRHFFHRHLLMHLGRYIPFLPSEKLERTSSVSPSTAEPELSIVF
The assay is described as follows: Inhibition of eotaxin-induced intracellular calcium mobilization in CCR-3 transfectant cells (CCR3/HEK293). The format is cell-based. The arrangement: expressed in transfected cells. As to conditions: compound 6.25 μg/ml, eotaxin 10 nM. As for the experimental part: Compounds 93-162 used in this assay were synthesized by using the method described in Example 6, and Compounds 168-170 were synthesized by using the method described in Example 6 except for the use of isothiocyanates instead of isocyanates in step 6.
CCR-3 transfectant cells (CCR3/HEK293) were isolated and resuspended with assay buffer (20 mM HEPES, 125 mM NaCl, 5 mM KCl, 0.5 mM glucose, 1 mM CaCl2, 1 mM MgCl2, 0.1% BSA). After washing CCR3/HEK293 cells with assay buffer, cells were loaded with Fura-2/AM in assay buffer for 1 hour at room temperature. Cells were washed and resuspended with assay buffer at 5×10^6 cells/ml in assay buffer, and placed in a tissue culture plate (Falcon, no. 3296). Test compounds dissolved in DMSO were added to the wells, followed by eotaxin (10 nM at final concentration). Cells were excited at 340 nm and 380 nm in a fluorimeter (ARGUS50,FDSS2000, Hamamatsu Photonics) and the relative ratio of the fluorescence emitted at 510 nm was recorded. For a control, DMSO without a test compound was added. Intracellular calcium mobilization was calculated as described in Krogel C. et al., FEBS Let. (1989) 243, 41-46.
(Calcium assays in cells follow changes in intracellular calcium, usually with a dye or a luminescent sensor.)

Assay [2] concerns eosinophil infiltration to BALF. The assay can be described thus: Eosinophil infiltration to bronchoalveolar lavage fluid (BALF) in OVA-immunized mice. Format: in vivo. To be noted: OVA-immunized male BALB/c mice, intraperitoneally for 9 days, FIG. 2C. As for the experimental part:
(§1) Male BALB/c mice were immunized by an intraperitoneal injection of 10 μg OVA adsorbed to 1 mg aluminum hydroxide gel (alum). A booster injection of the same dose of alum-adsorbed OVA was given 5 days later. Unimmunized control mice received saline.
(§2) Twelve days after primary immunization, both the immunized and unimmunized mice were exposed to aerosolized antigen. Aerosolization of OVA was performed using a nose-only aerosol chamber adapted for mice. Animals were exposed for 10 minutes to 5 mg/ml OVA aerosolized by an ultrasonic nebulizer (NE-U12, Omron, Tokyo, Japan) driven by a vacuum pump. The antigen bronchoprovocation was repeated on day 16 and day 20 under the same conditions. Compound No. 298 (CPD No. 298) was dissolved in saline containing 2% DMSO and 2% Cremophore and administered intraperitoneally for 9 days, starting on the first day of antigen inhalation.
Immediately after the measurement of airway reactivity to acethycholine, BALF was collected by lavaging whole-lung three times with 0.7-ml aliquots of physiological saline containing 0.1% BSA via the tracheal cannula while gently massaging the thorax. The BALF recovered from one mouse was pooled, centrifuged, and the cells were resuspended in 100 μl saline containing 0.1% BSA. Cell numbers were determined using a hemocytometer and 2×10^4 cells were cytecetrifuged onto a glass slide. […]

Assay [3] deals with bronchoconstriction provoked by acetylcholine. The assay can be described thus: Airway hyperreactivity: bronchoconstriction provoked by acetylcholine (murine asthma model). Format: in vivo. As to conditions: OVA-immunized male BALB/c mice, intraperitoneally for 9 days, FIG. 2A. As for the experimental part:
as §1, §2
Twenty-four hours after the final aerosol exposure, bronchoconstriction was measured by the overflow method of Konzett and Rōssler. […] Bronchoconstriction was recorded on a flatbed recorder (Model FBR-252A, TOA Electronics Ltd., Tokyo, Japan). […]

As for `O=C(O)CCCN(CCCNC(=O)Nc1ccc(Br)cc1)C1CCCc2ccccc21` (stereo not shown) [Compound 60, 4-[[3-(4-Bromophenylureido)propyl](1,2,3,4-tetrahydro-1-naphthyl)amino]butanoic acid], the “clinical score of collagen-induced arthritis” value in assay [1] was “marked prevention in clinical score”.

As to `COc1ccc(NC(=S)NCCCN(CCCC(=O)O)C2CCCc3ccccc32)cc1` (stereo not shown) [Compound 168], the “Ca^2+ mobilization 6.25 μg/ml (inhibition %)” value on CCR-3 is on record as 23%.

`O=C(O)CCCN(CCCNC(=S)Nc1ccc(OCc2ccccc2)cc1)C1CCCc2ccccc21` (stereo not shown) [Compound 169]: the “Ca^2+ mobilization 6.25 μg/ml (inhibition %)” value on CCR-3 was found to be 48%.

On to `O=C(O)CCCN(CCCNC(=S)Nc1ccc(OC(F)(F)F)cc1)C1CCCc2ccccc21` (stereo not shown) [Compound 170], for which the “Ca^2+ mobilization 6.25 μg/ml (inhibition %)” value on CCR-3 turned out to be 45%.

Regarding `CC[N+](CCCNC(=O)Nc1ccccc1)(CCc1ccc(Cl)cc1)Cc1ccc(Cl)cc1.[I-]` (stereo not shown) [Compound 298, [3-(Phenylureido)propyl][2(4-chlorophenyl)ethyl](4 chlorobenzyl)ethylammonium iodide], the “clinical score of collagen-induced arthritis” value in assay [1] is “marked prevention in clinical score”. Also, the “eosinophil infiltration to bronchoalveolar lavage fluid (BALF)” value in assay [2] was “significantly suppressed eosinophil infiltration”. For the same compound, the “bronchoconstriction provoked by acetylcholine” value in assay [3] is “Inhibition of bronchoconstriction”.

The values above are taken from patent US6875884B1, “Urea derivatives as inhibitors for CCR-3 receptor” (Kirin Beer Kabushiki Kaisha, priority 1999, dated 2005).
